# Like-named read-outs stand apart in the source and are kept apart here.
# Legend:
# Assay in all cases: in vitro antibacterial activity, agar plate dilution method
# Type in all cases: cell-based
# K. pneumoniae No. 42* = conditions: Klebsiella pneumoniae
# Procedure: (§1) Now, the in vitro antibacterial activities of the compounds of the present invention against various microorganisms, were measured by the following agar plate dilution method.
# (§2) One platinum loopfull of each test microorganism incubated overnight in Mueller Hinton broth, was inoculated to Mueller Hinton agar (MH agaer). Such culture media containing various antibiotics in various concentrations were prepared. After incubation at 37° C. for 16 hours, the minimum inhibitory concentrations (MIC μg/ml) were measured.
# K. oxytoca GN10650* = conditions: Klebsiella oxytoca, GN10650, 16 h
# Procedure: as §1, §2
# S. aureus 209P NIHJ-JC1 = conditions: Staphylococcus aureus
# Procedure: as §1, §2
# E. coli CSH(RE45)* = conditions: Escherichia coli; 10^6 CFU/ml; β-Lactamase-producing strain; 37° C., 16 hours; read-out: MIC
# Procedure: as §1, §2
# Ps. aeruginosa AKR17 = conditions: Pseudomonas aeruginosa
# Procedure: as §1, §2
# K. pneumoniae PC1-602 = conditions: Klebsiella pneumoniae
# Procedure: as §1, §2
# Ps. cepacia 23 = tested on: Ps. cepacia 23
# Procedure: as §1, §2
# P. vulgaris HX-19 = conditions: Proteus vulgaris, HX19; 10^6 CFU/ml; Mueller Hinton agar, 37° C., 16 hours; read-out: MIC
# Procedure: as §1, §2
# P. vulgaris No. 33* = conditions: Proteus vulgaris
# Procedure: as §1, §2
# Ps. aeruginosa AK 109 = conditions: Pseudomonas aeruginosa
# Procedure: as §1, §2
# M. morganii GN5407* = conditions: Morganella morganii
# Procedure: as §1, §2
# E. cloacae 963 = conditions: Enterobacter cloacae, 963, 16 h
# Procedure: as §1, §2
# S. marcescens No. 16-2* = conditions: Serratia marcescens
# Procedure: as §1, §2
# Ps. aeruginosa IFO3445 = conditions: Pseudomonas aeruginosa
# Procedure: as §1, §2
# E. coli CSH2(RK1)* = conditions: Escherichia coli, 16 h
# Procedure: as §1, §2
# E. coli NIHJ JC2 = conditions: Escherichia coli, NIHJJC2; 10^6 CFU/ml; Mueller Hinton agar, 37° C., 16 hours; read-out: MIC
# Procedure: as §1, §2
# A. calcoaceticus No. 4 = conditions: Acinetobacter calcoaceticus
# Procedure: as §1, §2
# E. coli GN5482* = conditions: Escherichia coli, GN5482, 16 h
# Procedure: as §1, §2
# S. marcescens IAM 1184 = conditions: Serratia marcescens
# Procedure: as §1, §2
# E. cloacae Nek 39* = conditions: Enterobacter cloacae
# Procedure: as §1, §2
# [1] = 10^6 CFU/ml, β-Lactamase-producing strain, 37° C., 16 hours, read-out: MIC
# [2] = AKR17, 10^6 CFU/ml, Mueller Hinton agar, 37° C., 16 hours, read-out: MIC
# [3] = PC1602, 10^6 CFU/ml, Mueller Hinton agar, 37° C., 16 hours, read-out: MIC
# [4] = GN5407, 10^6 CFU/ml, β-Lactamase-producing strain, 37° C., 16 hours, read-out: MIC
# [5] = NO.4, 10^6 CFU/ml, Mueller Hinton agar, 37° C., 16 hours, read-out: MIC
# [6] = IAM1184, 10^6 CFU/ml, Mueller Hinton agar, 37° C., 16 hours, read-out: MIC
# [7] = 10^6 CFU/ml, Mueller Hinton agar, 37° C., 16 hours, read-out: MIC
# [8] = Burkholderia cepacia, 23, 10^6 CFU/ml, Mueller Hinton agar, 37° C., 16 hours, read-out: MIC
Compound,MIC (K. oxytoca GN10650*) [µg/mL],MIC (E. coli CSH(RE45)*) [µg/mL],MIC (Ps. aeruginosa AKR17; [2]) [µg/mL],MIC (K. pneumoniae PC1-602; [3]) [µg/mL],"MIC (Ps. cepacia 23; Burkholderia cepacia, 23, 16 h) [µg/mL]",MIC (P. vulgaris HX-19) [µg/mL],MIC (P. vulgaris No. 33*; 16 h) [µg/mL],"MIC (Ps. aeruginosa AK 109; AK109, 16 h) [µg/mL]",MIC (M. morganii GN5407*; [4]) [µg/mL],MIC (E. cloacae 963) [µg/mL],MIC (S. marcescens No. 16-2*; 16 h) [µg/mL],"MIC (Ps. aeruginosa IFO3445; IFO3445, 16 h) [µg/mL]",MIC (E. coli CSH2(RK1)*) [µg/mL],MIC (E. coli NIHJ JC2) [µg/mL],MIC (A. calcoaceticus No. 4; [5]) [µg/mL],MIC (E. coli GN5482*) [µg/mL],MIC (S. marcescens IAM 1184; [6]) [µg/mL],MIC (E. cloacae Nek 39*; 16 h) [µg/mL],MIC (K. pneumoniae No. 42*; 16 h) [µg/mL],MIC (S. aureus 209P NIHJ-JC1; [7]) [µg/mL],further results
"C=C(O/N=C(\C(=O)N[C@@H]1C(=O)N2C(C(=O)O)=C(CSc3ncc(-c4ccc(O)c(O)c4)o3)CS[C@H]12)c1csc(N)n1)C(=O)O [Example 14, disodium 7β-[2-(2-aminothiazol-4-yl)-2-(1-carboxylato-1-vinyloxyimino)acetamido]-3-[5-(3,4-dihydroxyphenyl)oxazol-2-yl]thiomethyl-3-cephem-4-carboxylate (syn-isomer)]",0.1,0.025,3.12,< 0.006,0.0125,< 0.006,0.025,0.78,0.05,0.39,0.39,0.78,0.0125,0.78,0.2,1.56,0.05,0.1,–,–,MIC (K. pneumoniae No. 42*; [1]): 0.05 µg/mL; MIC (S. aureus 209P NIHJ-JC1; 16 h): 6.25 µg/mL
"C=C(O/N=C(\C(=O)N[C@@H]1C(=O)N2C(C(=O)O)=C(CSc3nc(-c4ccc(OC(C)=O)c(OC(C)=O)c4)c(CC(=O)O)s3)CS[C@H]12)c1csc(N)n1)C(=O)O [Example 16, trisodium 3-[4-(3,4-diacetoxyphenyl)-5-carboxylatomethylthiazol-2-yl]thiomethyl-7β-[2-(2-aminothiazol-4-yl)-2-(1-carboxylato-1-vinyloxyimino)acetamido]-3-cephem-4-carboxylate (syn-isomer)]",0.1,1.56,–,< 0.006,–,< 0.006,0.025,0.78,–,0.39,0.78,0.78,0.05,0.78,–,0.78,–,0.2,0.1,12.5,"MIC (Ps. aeruginosa AKR17; AKR17, 16 h): 1.56 µg/mL; MIC (Ps. cepacia 23; [8]): < 0.006 µg/mL; MIC (M. morganii GN5407*; GN5407, 16 h): 0.05 µg/mL; MIC (A. calcoaceticus No. 4; NO.4, 16 h): 0.2 µg/mL; MIC (S. marcescens IAM 1184; IAM1184, 16 h): 0.05 µg/mL"
"C=C(O/N=C(\C(=O)N[C@@H]1C(=O)N2C(C(=O)O)=C(COC(C)=O)CS[C@H]12)c1csc(N)n1)C(=O)O [Example 17, disodium 7β-[2-(2-aminothiazol-4-yl)-2-(1-carboxylato-1-vinyloxyimino)acetamido]cephalosporanate (syn-isomer)]",0.05,0.1,> 100,0.0125,1.56,< 0.006,0.1,6.25,–,0.1,–,6.25,0.025,0.1,25,1.56,0.0125,–,0.2,12.5,"MIC (M. morganii GN5407*; GN5407, 16 h): 0.025 µg/mL; MIC (S. marcescens No. 16-2*; [1]): 3.12 µg/mL; MIC (E. cloacae Nek 39*; [1]): 3.12 µg/mL"
"C=C(O/N=C(\C(=O)N[C@@H]1C(=O)N2C(C(=O)O)=C(CSc3nnc(C)s3)CS[C@H]12)c1csc(N)n1)C(=O)O [Example 18, disodium 7β-[2-(2-aminothiazol-4-yl)-2-11-carboxylato-1-vinyloxyimino)acetamido]-3-(5-methyl-1,3,4-thiadiazol-2-yl)thiomethyl-3-cephem-4-carboxylate (syn-isomer)]",0.2,0.1,> 100,–,–,< 0.006,–,–,0.0125,0.2,–,–,0.025,0.2,100,0.39,–,0.78,0.39,3.12,"MIC (K. pneumoniae PC1-602; PC1602, 16 h): 0.025 µg/mL; MIC (Ps. cepacia 23; [8]): 3.12 µg/mL; MIC (P. vulgaris No. 33*; [1]): < 0.006 µg/mL; MIC (Ps. aeruginosa AK 109; AK109, 10^6 CFU/ml, Mueller Hinton agar, 37° C., 16 hours, read-out: MIC): 12.5 µg/mL; MIC (S. marcescens No. 16-2*; [1]): 3.12 µg/mL; MIC (Ps. aeruginosa IFO3445; IFO3445, 10^6 CFU/ml, Mueller Hinton agar, 37° C., 16 hours, read-out: MIC): 12.5 µg/mL; MIC (S. marcescens IAM 1184; IAM1184, 16 h): 0.025 µg/mL"

# From US5084453A, “1-carboxy-1-vinyloxyimino aminothiazole cephalosporin derivatives” (priority 1988, dated 1992)
